# Test results as given in US4745124A, “Orally effective anti-hypertensive agents” (priority 1983, dated 1988).
# How the values were obtained:
# [1] = resistance of thioester compounds to alkaline hydrolysis; format: physicochemical
# Source text: Therefore the observed inhibitory effects cannot be accounted for by postulating spontaneous hydrolysis of the thioester bond to regenerate the free sulfhydryl group.
# [2] = system: serum ACE; experiment: oral effectiveness: intrinsic serum ACE activity in rats; format: in vivo, female Sprague-Dawley rat; details: oral 1 mg/kg
# Method: B. In certain experiments, as identified, an alternative assay system was employed using [^3 H]-HipGlyGly as substrate as described by Ryan, J. W., et al., Biochem. J. 167 501 (1977).
# Female Sprague-Dawley rats, approximately 250 g weight, were fasted overnight and then administered either 0.5 ml of saline, via stomach tube, or 0.5 ml saline containing compound (I) at a dose of 1 mg per kg of body weight. At timed intervals the rats were beheaded using a guillotine and 3 ml-5 ml blood was collected. The sera were assayed for intrinsic ACE activity, using the assay of Example 216B.
# [3] = system: serum ACE; experiment: oral effectiveness: intrinsic serum ACE activity in unanesthetized rabbits; format: in vivo; details: oral 1 mg, about 1 kg rabbit
# Method: A. ACE activity assay. For most experiments described herein, the enzyme ACE was assayed in 0.05M Hepes buffer, pH 8.0 containing 0.1M NaCl and 0.75M Na2 SO4. The substrate employed was Benzoyl-GlyHisLeu at a final concentration of 1×10^-4 M, together with about 130,000 cpm of [^3 H]-Benzoyl GlyHisLeu (25 Ci/mmole). Enzyme was diluted in the above buffer such that 40 μl buffered enzyme was capable of hydrolyzing 13% of substrate in a 15-minute incubation at 37° C. To initiate the assay, 40 μl of enzyme and 10 μl of water or inhibitor dissooved in water were preincubated for five minutes at 37° C. Substrate, 50 μl, was then added to initiate reaction and the solution was incubated for 15 minutes at 37° C. To terminate the reaction, 1 ml of 0.1M HCl was added, following which 1 ml of ethyl acetate was added. The mixture was agitated on a rotary mixer and centrifuged briefly to separate the phases.
# Young, unanesthetized rabbits, fasted overnight, weighing about 1 kg, were given compound (I). The compound was dissolved in water at alkaline pH, 1 mg of (I) in 3 ml water containing 50 μl 1N NaHCO3. Blood samples, 0.5 ml, were collected at timed intervals from a marginal ear vein. Sera obtained after clot formation and centrifugation were assayed for intrinsic ACE activity, using 1 μl in the assay of Example 216A.
# [4] = system: pressor effects of angiotensin II; experiment: oral: blood pressure response to angiotensin II in anesthetized rats; format: in vivo, rat; details: 2 or 5 mg/kg, angiotensin II 80 ng
# Method: Rats (210-290 g body weight) were fasted overnight and then anesthetized with intraperitoneal pentobarbital, 50-60 mg/kg. Tracheostomy was performed and the animals were ventilated mechanically. A cannula was inserted into a femoral vein for injection of angiotensin I or II, and a second cannula was inserted into a common carotid artery for direct measurement of arterial blood pressure. Heparin, 1,000 units, was injected via the femoral vein to prevent coagulation. Blood pressure was measured with a pressure transducer connected to a polygraph. The rats were injected with 80 ng of angiotensin I or angiotensin II in 20 μl of 0.9 g % NaCl; an amount of antiotensin I or II sufficient to raise mean arterial blood pressure by 27-40 mm Hg. After the responsiveness of a given rat to angiotensins I and II was established, compound (I), at 2 or 5 mg/kg (drug dissolved in 0.5 ml of H2 O plus 10 μl of 1N NaHCO3), was given via a stomach tube. At timed intervals, the effects of 80 ng of angiotensin I or angiotensin II on mean arterial blood pressure were tested.
# Rats were prepared as described in Example 222. Compound (II) [N-benzoyl-L-phenylalanylthiopropanoyl)-L-proline] was given orally, via a stomach tube, at a dose of 12 mg/kg or 20 mg/kg. Compound (II) was dissolved in 0.5 ml of H2 O plus 10 μl of 1N NaHCO3. […]
compound,measurement,setting,value
"C[C@H](CSC(=O)C(Cc1ccccc1)NC(=O)c1ccccc1)C(=O)N1CCC[C@H]1C(=O)O (stereo partly drawn) [Compound (I), 2-benzoylphenylalanylthio-2-D-methylpropanoyl-L-proline]",resistance to alkaline hydrolysis,[1],surprisingly resistant to alkaline hydrolysis
same,hydrolysis at pH 9.5 in 1M NaHCO3,"[1]; pH 9.5, 1M NaHCO3",not hydrolyzed
same,Serum ACE activity,"[2]; 5 min, run 1",100% of Control
same,Serum ACE activity,"[2]; 5 min, run 2",100% of Control
same,Serum ACE activity,"[2]; 10 min, run 1",65% of Control
same,Serum ACE activity,"[2]; 10 min, run 2",52% of Control
same,Serum ACE activity,"[2]; 30 min, run 1",50% of Control
same,Serum ACE activity,"[2]; 30 min, run 2",45% of Control
same,Serum ACE activity,"[2]; 60 min, run 1",50% of Control
same,Serum ACE activity,"[2]; 60 min, run 2",42% of Control
same,Serum ACE activity,"[2]; 90 min, run 1",20% of Control
same,Serum ACE activity,"[2]; 90 min, run 2",20% of Control
same,Serum ACE activity,"[3]; 0.167 h, Rabbit 1",7% of Control
same,Serum ACE activity,"[3]; 0.167 h, Rabbit 2",11% of Control
same,Serum ACE activity,"[3]; 0.33 h, Rabbit 1",8% of Control
same,Serum ACE activity,"[3]; 0.33 h, Rabbit 2",9% of Control
same,Serum ACE activity,"[3]; 0.5 h, Rabbit 1",7% of Control
same,Serum ACE activity,"[3]; 0.5 h, Rabbit 2",8% of Control
same,Serum ACE activity,"[3]; 1.0 h, Rabbit 1",20% of Control
same,Serum ACE activity,"[3]; 1.0 h, Rabbit 2",44% of Control
same,Serum ACE activity,"[3]; 1.5 h, Rabbit 1",14% of Control
same,Serum ACE activity,"[3]; 1.5 h, Rabbit 2",55% of Control
same,Serum ACE activity,"[3]; 2.0 h, Rabbit 1",11% of Control
same,Serum ACE activity,"[3]; 2.0 h, Rabbit 2",44% of Control
same,Serum ACE activity,"[3]; 2.5 h, Rabbit 1",12% of Control
same,Serum ACE activity,"[3]; 2.5 h, Rabbit 2",40% of Control
same,Serum ACE activity,"[3]; 3.0 h, Rabbit 1",30% of Control
same,Serum ACE activity,"[3]; 4.0 h, Rabbit 1",23% of Control
same,Serum ACE activity,"[3]; 5.0 h, Rabbit 1",19% of Control
same,Serum ACE activity,"[3]; 20.0 h, Rabbit 1",70% of Control
same,effects of angiotensin II (specificity),[4],not inhibited
